“And” between values parts separate entries of the source, which are not always exact repeats. Equal entries are not always repeated. ± gives the expanded uncertainty stated by the source.
Conditions: Liquid; for mass density: Bellows volumetry; for vapor or sublimation pressure: Closed cell (Static) method

CC(C)C [2-methylpropane]
mass density
Conditions	280 K	300 K	320 K	340 K	360 K	380 K	400 K	420 K	440 K
1000 kPa	574.99 ± 0.63 kg/m3	550.5 ± 0.61 kg/m3	523.69 ± 0.58 kg/m3	–	–	–	–	–	–
2000 kPa	576.63 ± 0.63 kg/m3	–	526.51 ± 0.58 kg/m3	496.95 ± 0.55 kg/m3	461.05 ± 0.51 kg/m3	–	–	–	–
3000 kPa	578.23 ± 0.64 kg/m3	554.67 ± 0.61 kg/m3	529.22 ± 0.58 kg/m3	500.67 ± 0.55 kg/m3	467.32 ± 0.51 kg/m3	422.93 ± 0.47 kg/m3 and 422.97 ± 0.47 kg/m3	–	–	–
4000 kPa	–	–	–	–	–	–	374.9 ± 0.41 kg/m3	–	–
5000 kPa	581.15 ± 0.64 kg/m3	558.59 ± 0.61 kg/m3	534.28 ± 0.59 kg/m3	507.71 ± 0.56 kg/m3	477.66 ± 0.53 kg/m3	441.32 ± 0.49 kg/m3 and 441.54 ± 0.49 kg/m3	394.02 ± 0.43 kg/m3	–	–
10000 kPa	587.88 ± 0.65 kg/m3	567.19 ± 0.62 kg/m3	545.21 ± 0.6 kg/m3	521.75 ± 0.57 kg/m3	496.94 ± 0.55 kg/m3	468.99 ± 0.52 kg/m3 and 469.14 ± 0.52 kg/m3	438.72 ± 0.48 kg/m3	404.86 ± 0.45 kg/m3	366.35 ± 0.4 kg/m3
20000 kPa	600.12 ± 0.66 kg/m3	581.58 ± 0.64 kg/m3	562.64 ± 0.62 kg/m3	542.79 ± 0.6 kg/m3	522.77 ± 0.58 kg/m3	501.27 ± 0.55 kg/m3 and 501.58 ± 0.55 kg/m3	479.65 ± 0.53 kg/m3	457.86 ± 0.5 kg/m3	435.91 ± 0.48 kg/m3
30000 kPa	610.42 ± 0.67 kg/m3	593.56 ± 0.65 kg/m3	576.49 ± 0.63 kg/m3	558.72 ± 0.61 kg/m3	541.32 ± 0.6 kg/m3	522.56 ± 0.57 kg/m3 and 522.99 ± 0.58 kg/m3	504.24 ± 0.55 kg/m3	486.44 ± 0.54 kg/m3	469.37 ± 0.52 kg/m3
40000 kPa	619.36 ± 0.68 kg/m3	603.71 ± 0.66 kg/m3	587.85 ± 0.65 kg/m3	571.75 ± 0.63 kg/m3	555.78 ± 0.61 kg/m3	539.38 ± 0.59 kg/m3	522.85 ± 0.58 kg/m3	507.08 ± 0.56 kg/m3	492.27 ± 0.54 kg/m3
50000 kPa	627.41 ± 0.69 kg/m3	612.8 ± 0.67 kg/m3	597.69 ± 0.66 kg/m3	582.77 ± 0.64 kg/m3	568.17 ± 0.62 kg/m3	552.44 ± 0.61 kg/m3 and 552.92 ± 0.61 kg/m3	537.71 ± 0.59 kg/m3	523.34 ± 0.58 kg/m3	510.21 ± 0.56 kg/m3
60000 kPa	634.74 ± 0.7 kg/m3	620.94 ± 0.68 kg/m3	606.61 ± 0.67 kg/m3	592.49 ± 0.65 kg/m3	578.92 ± 0.64 kg/m3	564.45 ± 0.62 kg/m3	550.04 ± 0.61 kg/m3	537.02 ± 0.59 kg/m3	524.88 ± 0.58 kg/m3
70000 kPa	641.52 ± 0.71 kg/m3	628.12 ± 0.69 kg/m3	614.55 ± 0.68 kg/m3	601.18 ± 0.66 kg/m3	588.19 ± 0.65 kg/m3	574.7 ± 0.63 kg/m3	561.13 ± 0.62 kg/m3	548.69 ± 0.6 kg/m3	537.25 ± 0.59 kg/m3
80000 kPa	647.64 ± 0.71 kg/m3	634.84 ± 0.7 kg/m3	621.94 ± 0.68 kg/m3	609.11 ± 0.67 kg/m3	596.75 ± 0.66 kg/m3	583.67 ± 0.64 kg/m3	570.85 ± 0.63 kg/m3	559.13 ± 0.62 kg/m3	548.44 ± 0.6 kg/m3
90000 kPa	653.57 ± 0.72 kg/m3	641.05 ± 0.71 kg/m3	628.85 ± 0.69 kg/m3	616.5 ± 0.68 kg/m3	604.39 ± 0.66 kg/m3	592.06 ± 0.65 kg/m3	579.4 ± 0.64 kg/m3	568.43 ± 0.63 kg/m3	558.09 ± 0.61 kg/m3
100000 kPa	659 ± 1 kg/m3	646.84 ± 1 kg/m3	635.06 ± 1.1 kg/m3	622.79 ± 1.1 kg/m3	611.7 ± 1.2 kg/m3	599.29 ± 1.2 kg/m3 and 599.44 ± 1.2 kg/m3	587.43 ± 1.2 kg/m3	576.8 ± 1.3 kg/m3	567 ± 1.3 kg/m3
120000 kPa	669.09 ± 1 kg/m3	657.68 ± 1.1 kg/m3	646.41 ± 1.1 kg/m3	634.99 ± 1.1 kg/m3	624.5 ± 1.2 kg/m3	612.95 ± 1.2 kg/m3	601.69 ± 1.3 kg/m3	591.55 ± 1.3 kg/m3	582.66 ± 1.4 kg/m3
140000 kPa	678.21 ± 1 kg/m3	667.21 ± 1.1 kg/m3	656.55 ± 1.1 kg/m3	645.72 ± 1.2 kg/m3	635.8 ± 1.2 kg/m3	624.62 ± 1.3 kg/m3	614.21 ± 1.3 kg/m3	604.56 ± 1.3 kg/m3	595.99 ± 1.4 kg/m3
160000 kPa	686.38 ± 1 kg/m3	676.01 ± 1.1 kg/m3	665.84 ± 1.1 kg/m3	655.32 ± 1.2 kg/m3	645.85 ± 1.2 kg/m3	635.26 ± 1.3 kg/m3	625.04 ± 1.3 kg/m3	616.21 ± 1.4 kg/m3	608.09 ± 1.4 kg/m3
180000 kPa	694.06 ± 1.1 kg/m3	684 ± 1.1 kg/m3	674.38 ± 1.2 kg/m3	664.26 ± 1.2 kg/m3	655.11 ± 1.2 kg/m3	644.86 ± 1.3 kg/m3	635.05 ± 1.3 kg/m3	626.52 ± 1.4 kg/m3	618.72 ± 1.4 kg/m3
200000 kPa	701.06 ± 1.1 kg/m3	691.43 ± 1.1 kg/m3	682.01 ± 1.2 kg/m3	672.25 ± 1.2 kg/m3	663.39 ± 1.3 kg/m3	653.7 ± 1.3 kg/m3 and 653.25 ± 1.3 kg/m3	644.07 ± 1.4 kg/m3	635.99 ± 1.4 kg/m3	628.4 ± 1.5 kg/m3

Conditions	vapor or sublimation pressure [kPa]
280 K	199.8 ± 0.7
300 K	369.8 ± 0.8

From the NIST ThermoML archive (doi:10.1016/j.jct.2005.05.019)
